Conditions: 101.33 kPa, Liquid; for speed of sound: Sing-around technique in a fixed-path interferometer; for mass density: Vibrating tube method

CC(=O)[O-].C[NH2+]CCO [N-methyl-2-hydroxyethylammonium acetate]
Conditions	mass density [kg/m3]	speed of sound [m/s]	viscosity [mPa·s]
278.15 K	1112.83	1848.3	–
278.4 K	1112.68	1847.6	–
278.65 K	1112.54	1846.8	–
278.9 K	1112.38	1846.1	–
279.15 K	1112.23	1845.4	–
279.4 K	1112.08	1844.7	–
279.65 K	1111.93	1843.9	–
279.9 K	1111.78	1843.2	–
280.15 K	1111.63	1842.5	–
280.4 K	1111.48	1841.8	–
280.65 K	1111.33	1841	–
280.9 K	1111.18	1840.3	–
281.15 K	1111.03	1839.6	–
281.4 K	1110.88	1838.9	–
281.65 K	1110.74	1838.2	–
281.9 K	1110.58	1837.5	–
282.15 K	1110.43	1836.8	–
282.4 K	1110.28	1836.1	–
282.65 K	1110.13	1835.4	–
282.9 K	1109.98	1834.7	–
283.15 K	1109.83	1834	–
283.4 K	1109.68	1833.3	–
283.65 K	1109.53	1832.6	–
283.9 K	1109.38	1832	–
284.15 K	1109.22	1831.3	–
284.4 K	1109.07	1830.6	–
284.65 K	1108.92	1829.9	–
284.9 K	1108.77	1829.2	–
285.15 K	1108.62	1828.6	–
285.4 K	1108.47	1827.9	–
285.65 K	1108.32	1827.2	–
285.9 K	1108.17	1826.5	–
286.15 K	1108.02	1825.9	–
286.4 K	1107.86	1825.2	–
286.65 K	1107.71	1824.5	–
286.9 K	1107.56	1823.8	–
287.15 K	1107.41	1823.2	–
287.4 K	1107.26	1822.5	–
287.65 K	1107.11	1821.8	–
287.9 K	1106.95	1821.2	–
288.15 K	1106.8	1820.5	211.24
288.4 K	1106.65	1819.9	–
288.65 K	1106.5	1819.2	–
288.9 K	1106.35	1818.6	–
289.15 K	1106.19	1817.9	–
289.4 K	1106.04	1817.3	–
289.65 K	1105.89	1816.6	–
289.9 K	1105.73	1816	–
290.15 K	1105.58	1815.3	–
290.4 K	1105.43	1814.7	–
290.65 K	1105.28	1814	–
290.9 K	1105.13	1813.4	–
291.15 K	1104.97	1812.7	–
291.4 K	1104.82	1812.1	–
291.65 K	1104.67	1811.4	–
291.9 K	1104.51	1810.8	–
292.15 K	1104.36	1810.1	–
292.4 K	1104.21	1809.5	–
292.65 K	1104.05	1808.8	–
292.9 K	1103.9	1808.2	–
293.15 K	1103.76	1807.5	145.8
293.4 K	1103.61	1806.9	–
293.65 K	1103.46	1806.3	–
293.9 K	1103.32	1805.6	–
294.15 K	1103.17	1805	–
294.4 K	1103.02	1804.3	–
294.65 K	1102.88	1803.7	–
294.9 K	1102.73	1803.1	–
295.15 K	1102.59	1802.4	–
295.4 K	1102.44	1801.8	–
295.65 K	1102.29	1801.2	–
295.9 K	1102.14	1800.5	–
296.15 K	1102	1799.9	–
296.4 K	1101.85	1799.2	–
296.65 K	1101.7	1798.6	–
296.9 K	1101.56	1798	–
297.15 K	1101.41	1797.3	–
297.4 K	1101.26	1796.7	–
297.65 K	1101.11	1796	–
297.9 K	1100.97	1795.4	–
298.15 K	1100.83	1794.8	106.06
298.4 K	1100.67	1794.1	–
298.65 K	1100.53	1793.5	–
298.9 K	1100.38	1792.9	–
299.15 K	1100.23	1792.2	–
299.4 K	1100.08	1791.6	–
299.65 K	1099.93	1791	–
299.9 K	1099.78	1790.3	–
300.15 K	1099.63	1789.7	–
300.4 K	1099.48	1789	–
300.65 K	1099.34	1788.4	–
300.9 K	1099.19	1787.8	–
301.15 K	1099.04	1787.1	–
301.4 K	1098.89	1786.5	–
301.65 K	1098.74	1785.8	–
301.9 K	1098.59	1785.2	–
302.15 K	1098.44	1784.6	–
302.4 K	1098.29	1783.9	–
302.65 K	1098.14	1783.3	–
302.9 K	1097.99	1782.6	–
303.15 K	1097.84	1782	78.7
303.4 K	1097.69	1781.3	–
303.65 K	1097.54	1780.7	–
303.9 K	1097.4	1780.2	–
304.15 K	1097.25	1779.6	–
304.4 K	1097.1	1779	–
304.65 K	1096.95	1778.3	–
304.91 K	1096.79	1777.7	–
305.15 K	1096.64	1777	–
305.4 K	1096.49	1776.4	–
305.65 K	1096.34	1775.7	–
305.9 K	1096.19	1775.1	–
306.15 K	1096.04	1774.5	–
306.4 K	1095.89	1773.8	–
306.65 K	1095.74	1773.2	–
306.9 K	1095.59	1772.5	–
307.15 K	1095.44	1771.9	–
307.4 K	1095.29	1771.3	–
307.65 K	1095.14	1770.6	–
307.9 K	1094.98	1770	–
308.15 K	–	–	60.03

— the NIST ThermoML archive (doi:10.1021/je900550v)
